Test results from US11420962B2, “Indene derivatives useful in treating pain and inflammation” (TARO PHARMACEUTICALS INC., priority 2018, dated 2022).

Key:
[1] = test system: T cells; assay: T cell proliferation (anti-CD3/anti-CD28 dynabeads, CCK-8); type: cell-based, mice; conditions: Table 4, mouse T cells, 72 hours after dynabeads, read-out: Scoring (IC50, cell proliferation)
Experimental: Spleens were obtained from six male, CD-1 outbred mice, approximately 8 weeks old. Cells were harvested under sterile conditions by forcing each spleen though a cell filter (pore size 100 μm diameter). A homogenous cell suspension was obtained by washing the cells in fresh medium and passing cells through a smaller cell filter (pore size 70 μm).
Untouched T cells were isolated using the Pan T cell isolation kit (Miltenyi Biotech). Briefly, cells were counted and incubated with the required volume of antibody cocktail for 5 minutes at 4° C. before addition of microbeads and incubation for 10 minutes at 4° C. Labeled cells were retained in a magnetic column while unlabeled cells (T cells) passed through the column and were retained for use in the assay.
Cell viability was assessed by Trypan Blue exclusion and found to be >99% prior to transfer to plates. Isolated T cells were seeded out in 96 well plates at a density of 50,000 cells per well and allowed to incubate for 60 minutes in a humidified cell culture (37° C., 5% CO2) incubator prior to compound treatment. The media used for this assay (TexMACS, Miltenyi Biotech) was previously optimized for proliferation of T cells in serum free conditions.
Representative compounds of the invention (i.e., test compounds) were prepared as 30 mM stocks in 100% DMSO. Test compounds were initially diluted in media to yield 3 mM stocks before an additional 1:10 dilution in media was performed to yield working stocks of 300 μM (1% DMSO). Subsequent dilutions were performed in media (supplemented with 1% DMSO). When added to the assay plates (1:10 dilution), these yielded final concentrations in the assay plates of in 0.1% DMSO. The reference compound, Cyclosporin A, was prepared in an identical manner as above.
Unstimulated and Stimulated Control wells received an identical volume of TexMACS media/1% DMSO at this time, resulting in a final concentration of 0.1% DMSO across the plate. Mouse anti-CD3/anti-CD28 dynabeads were prepared (following the manufacturers' instructions) in TexMACS media and added to appropriate wells to achieve a final concentration of 1 bead per cell. Unstimulated Control wells then received an identical volume of TexMACS. Plates were centrifuged 72 hours after addition of dynabeads, (300×g for 3 minutes) to pellet the cells and 60% of the supernatant was removed to a fresh plate for analysis by ELISA. After removal of 60% of the supernatant for subsequent ELISA, cell proliferation was assessed using the CCK-8 assay.
Average response by the standard compound, cyclosporin A, was 1 uM.

[2] = test system: Rat DRG; assay: Rat dorsal root ganglion excitability response (EFS, Ca2+ transients); type: cell-based; conditions: Rattus norvegicus; Table 3; electrical field stimulation, Ca5 indicator; read-out: Scoring (EC50, Rat DRG excitability)
Experimental: Dorsal root ganglions (DRGs) were dissected from adult rats. The tissue was processed, and cells were seeded into call culture plates (48 center wells of one quadrant in 384-well plates) and cultured for 2 days prior to Electrical field stimulation (EFS). To visualize the neuronal excitability response, intracellular Ca^+2 transients were monitored using the Ca^+2 indicator, Ca5. Ca5 was added to the cultures 1 h prior to EFS. Representative test compounds of the invention (i.e., test compounds) and reference compound, tetracaine, were added in concentration-response format encompassing six concentrations, performed in duplicate. The highest concentration tested was typically 30 μM with 1 in 3 dilutions generating the subsequent concentrations.
Effects on DRG excitability by the test compounds and standard were evaluated using four EFS protocols as disclosed in Table 2.
Experimental results were performed using two separate sets of plates using separate test compound and standard dilutions, to provide n=2. In the first set of experiments, compounds were added 24 h prior to EFS to increase the possibility to also detect more long-term compound effects. In the second set of experiments the compounds were added directly prior to EFS. Excitability response to EFS was analyzed as the average fluorescence ratio (peak/baseline) change per well. All plates were evaluated using high content imaging equipment post-EFS, imaging the Ca5 background staining to detect any possible compound-related toxic effects.
Average response by the standard compound, tetracaine, was 4.05 μM.

[3] = test system: Mice (male, C57Bl/6); assay: Formalin pain assay in mice; type: in vivo; conditions: Table 7; formalin 2.5%, left plantar
Experimental: Mice (male, C57BL/6) were placed singly in a Perspex chamber for approximately 30 min on three successive days to acclimate and thereby reduce stress-induced behaviors. On the fourth day, the experimental animals received a 25 μl injection of 2.5% formalin beneath the left plantar skin using a 29-gauge syringe. […] The total time spent on flinches/licking/biting of the hind paw was recorded by visual observation for every 5 min period/interval for total observation duration of 60 min in two phases, the early phase (0-5 min) and the late phase (15-40 min). Observers were blinded to the treatment group allocation.
For test compounds, the % protection from 0-60 min was used to assess activity. Scoring for the test compounds was as follows: “A” represents a % protection of 81 to 100%, “B” represents a % protection of 61 to 80%, “C” represents a % protection of 31 to 60% and “D” represents a % protection of 0 to 30%.

[4] = Metabolism by human liver microsomes; type: in vitro ADME; conditions: Table 8; 10 µM, in the presence of NADPH, 1 mg/mL protein
Experimental: Representative compounds of the invention (i.e., test compounds) and the positive control, 7-ethoxycoumarin, were prepared as stock solutions at 10 mM in DMSO and eventually diluted to 10 μM in the test plate, with an appropriate amount of acetonitrle and tris HCl buffer. Final DMSO and acetonitrile concentrations were […] and 0.5% respectively. NADPH was prepared in tris HCl buffer to a stock of 10 mM. A frozen aliquot of live microsomes was retrieved from the freezer (−80° C.) and thawed by placing the tube on wet ice. After thawing, the tubes were gently mixed and the required amount, transferred to tris HCl buffer. Test compounds or positive control were pre-incubated, separately, for 10 minutes, with liver microsomes (1 mg/mL protein), at 37° C., in 100 mM Tris HCl at pH 7.5. After preincubation the reaction was started by adding 1 mM NADPH (pre-equilibrated to […]) and the reaction allowed to proceed for 60 minutes. At 60 minutes, a 50 μL aliquot was removed and quenched with 200 uL of acetonitrile containing a mixture of internal standards (Tolbutamide (500 ng/mL) and Telmistartan (500 ng/mL)) and vortexed then centrifuged at 4000 rmp for 10 minutes (Eppendorf 5810R). The supernatant was transferred to a 96 well plate for LC-MS/MS analysis.
An LC-MS/MS method was devised for the test compounds and the control, using a AB Sciex API 4000 system coupled to a NEXAR™ UHPLC (Shimadzu) system. Analytes were separated on a Phenomenex Kinetex C18 column (50×2.1 mm, 5 μm) using a gradient that was appropriate for each compound, at a flow rate of 1 ml/minute, utilizing a mobile phase of 0.1% formic acid in MILLI-Q™ water (A) and 0.1% formic acid in acetonitrile (B). The MS instrument was operated in positive mode (ESI+)/negative (ESI−). The multiple reaction monitoring (MRM) transition for test and control compounds was used for the LC-MS/MS analysis. MRM transitions for control compound 7-ethoxycoumarinm were Quadropole 1: 191.0, Quadropole 3: 163.0, dwell time: 75 msec, using curtain gas settings of 5 V, ion-spray voltage of 5500 V, temperature of 50° C. and gas settings for nebulizer and auxiliary set to 30 and 40 psi, respectively. The interface heater was kept on. Entrance potential and collision cell exit potential were varied to tune for a specific compound.
Using a suitable LC-MS/MS method, the percentage of drug remaining at 60 minutes ([…]) was assessed by comparing the average analyte to internal standard area ratio at 60 minutes to the average analyte to internal standard area ratio at 0 time control, as a percentage, from a 5 to 10 μL sample injection.
According to the above assay, the representative compounds listed in Table 8 below were active in the Human liver microsome assay at […] and the % of drug remaining after 60 minutes (PDR60), in the presence of NADPH, was assessed by LC-MS/MS. Average PDR60 for the standard compound, 7-ethoxycoumarin was <=65% in the presence of NADPH. Scoring for the test compounds, in the presence of NADPH, was as follows: “A” represents a PDR^60 of 81 to 100%, “B” represents a PDR^60 of 61 to 80%, “C” represents a PDR^60 of 31 to 60% and “D” represents a PDR^60 of 0 to 30%.

SMILES	IC50 [1]	EC50 [2]	Scoring (% protection from 0-60 min) [3]	Scoring (% of drug remaining after 60 minutes, PDR60) [4]
CC(C)CCC[C@@H](C)[C@H]1CC[C@H]2[C@H](CNCc3ccc4c(c3)OC(F)(F)O4)[C@@H]([C@@]3(C)Cc4cn[nH]c4C[C@@H]3CO)CC[C@]12C [Ia-7, ((5R,6S)-5-((1R,3aS,4S,5S,7aR)-4-((((2,2-difluorobenzo[d][1,3]dioxol-5-yl)methyl)amino)methyl)-7a-methyl-1-((R)-6-methylheptan-2-yl)octahydro-1H-inden-5-yl)-5-methyl-4,5,6,7-tetrahydro-1H-indazol-6-yl)methanol]	< 2 µM			
C=C1CC[C@H]2[C@H](CN)[C@@H]([C@@]3(C)Cc4cnn(-c5ccccc5)c4C[C@@H]3CO)CC[C@]12C [Ia-8, ((5R,6S)-5-((3aS,4R,5S,7aS)-4-(aminomethyl)-7a-methyl-1-methyleneoctahydro-1H-inden-5-yl)-5-methyl-1-phenyl-4,5,6,7-tetrahydro-1H-indazol-6-yl)methanol]		2 to 6 µM	D (a % protection of 0 to 30%)	D (a PDR^60 of 0 to 30%)
C[C@H]1CC[C@H]2[C@H](CN)[C@@H]([C@@]3(C)Cc4cn[nH]c4C[C@@H]3CO)CC[C@]12C [Ia-34, ((5R,6S)-5-((1S,3aS,4S,5S,7aR)-4-(aminomethyl)-1,7a-dimethyloctahydro-1H-inden-5-yl)-5-methyl-4,5,6,7-tetrahydro-1H-indazol-6-yl)methanol]		6 to 15 µM	C (a % protection of 31 to 60%)	B (a PDR^60 of 61 to 80%)
CC[C@H]1CC[C@H]2[C@H](CN)[C@@H]([C@@]3(C)Cc4cn[nH]c4C[C@@H]3CO)CC[C@]12C [Ia-29, ((5R,6S)-5-((1S,3aS,4S,5S,7aR)-4-(aminomethyl)-1-ethyl-7a-methyloctahydro-1H-inden-5-yl)-5-methyl-4,5,6,7-tetrahydro-1H-indazol-6-yl)methanol]		6 to 15 µM	D (a % protection of 0 to 30%)	C (a PDR^60 of 31 to 60%)
C=C1CC[C@H]2[C@H](CN)[C@@H]([C@@]3(C)Cc4conc4C[C@@H]3CO)CC[C@]12C [Ig-1, ((5R,6S)-5-((3aS,4R,5S,7aS)-4-(aminomethyl)-7a-methyl-1-methyleneoctahydro-1H-inden-5-yl)-5-methyl-4,5,6,7-tetrahydrobenzo[c]isoxazol-6-yl)methanol]		6 to 15 µM	C (a % protection of 31 to 60%)	A (a PDR^60 of 81 to 100%)
C=C1CC[C@H]2[C@H](CN)[C@@H]([C@@]3(C)Cc4c(C(F)F)n[nH]c4C[C@@H]3CO)CC[C@]12C [Ia-30, ((5R,6S)-5-((3aS,4R,5S,7aS)-4-(aminomethyl)-7a-methyl-1-methyleneoctahydro-1H-inden-5-yl)-3-(difluoromethyl)-5-methyl-4,5,6,7-tetrahydro-1H-indazol-6-yl)methanol]	6 to 15 µM			
C=C1CC[C@H]2[C@H](CN)[C@@H]([C@@]3(C)Cc4c(C(F)(F)F)n[nH]c4C[C@@H]3CO)CC[C@]12C [Ia-31, ((5R,6S)-5-((3aS,4R,5S,7aS)-4-(aminomethyl)-7a-methyl-1-methyleneoctahydro-1H-inden-5-yl)-5-methyl-3-(trifluoromethyl)-4,5,6,7-tetrahydro-1H-indazol-6-yl)methanol]	2 to 6 µM			
C[C@@]12CCC[C@H]1[C@H](CO)[C@@H]([C@@]1(C)Cc3cn[nH]c3C[C@@H]1CO)CC2 [Ia-27, ((3aS,4S,5S,7aS)-5-((5R,6S)-6-(hydroxymethyl)-5-methyl-4,5,6,7-tetrahydro-1H-indazol-5-yl)-7a-methyloctahydro-1H-inden-4-yl)methanol]		6 to 15 µM	D (a % protection of 0 to 30%)	
C[C@@]12CCC[C@H]1[C@H](CN)[C@@H]([C@@]1(C)Cc3cn[nH]c3C[C@@H]1CO)CC2 [Ia-33, ((5R,6S)-5-((3aS,4S,5S,7aS)-4-(aminomethyl)-7a-methyloctahydro-1H-inden-5-yl)-5-methyl-4,5,6,7-tetrahydro-1H-indazol-6-yl)methanol]		6 to 15 µM	C (a % protection of 31 to 60%)	B (a PDR^60 of 61 to 80%)
C=C1[C@@H](O)C[C@H]2[C@H](CO)[C@@H]([C@@]3(C)Cc4cn[nH]c4C[C@@H]3CO)CC[C@]12C [Ia-66, (2S,3aS,4R,5S,7aS)-4-(hydroxymethyl)-5-((5R,6S)-6-(hydroxymethyl)-5-methyl-4,5,6,7-tetrahydro-1H-indazol-5-yl)-7a-methyl-1-methyleneoctahydro-1H-inden-2-ol]		> 15 µM	D (a % protection of 0 to 30%)	A (a PDR^60 of 81 to 100%)
